Measurements: ChEMBL document CHEMBL1159194, “Two pimarane diterpenoids from Ephemerantha lonchophylla and their evaluation as modulators of the multidrug resistance phenotype” (J Nat Prod, 1998)
Calls of active or inactive are those of the source. No cut-off for these calls is given here.

Legend:
[1] = biological target: ATP-dependent translocase ABCB1 (Homo sapiens, UniProt P08183); assay: Inhibition of human MDR1 expressed in mouse B16/F10 cells assessed as increase in doxorubicin accumulation by fluorimetry; format: cell-based; conditions: read-out: ED50 (the source's name)
Sequence of ATP-dependent translocase ABCB1 (P08183 whole entry): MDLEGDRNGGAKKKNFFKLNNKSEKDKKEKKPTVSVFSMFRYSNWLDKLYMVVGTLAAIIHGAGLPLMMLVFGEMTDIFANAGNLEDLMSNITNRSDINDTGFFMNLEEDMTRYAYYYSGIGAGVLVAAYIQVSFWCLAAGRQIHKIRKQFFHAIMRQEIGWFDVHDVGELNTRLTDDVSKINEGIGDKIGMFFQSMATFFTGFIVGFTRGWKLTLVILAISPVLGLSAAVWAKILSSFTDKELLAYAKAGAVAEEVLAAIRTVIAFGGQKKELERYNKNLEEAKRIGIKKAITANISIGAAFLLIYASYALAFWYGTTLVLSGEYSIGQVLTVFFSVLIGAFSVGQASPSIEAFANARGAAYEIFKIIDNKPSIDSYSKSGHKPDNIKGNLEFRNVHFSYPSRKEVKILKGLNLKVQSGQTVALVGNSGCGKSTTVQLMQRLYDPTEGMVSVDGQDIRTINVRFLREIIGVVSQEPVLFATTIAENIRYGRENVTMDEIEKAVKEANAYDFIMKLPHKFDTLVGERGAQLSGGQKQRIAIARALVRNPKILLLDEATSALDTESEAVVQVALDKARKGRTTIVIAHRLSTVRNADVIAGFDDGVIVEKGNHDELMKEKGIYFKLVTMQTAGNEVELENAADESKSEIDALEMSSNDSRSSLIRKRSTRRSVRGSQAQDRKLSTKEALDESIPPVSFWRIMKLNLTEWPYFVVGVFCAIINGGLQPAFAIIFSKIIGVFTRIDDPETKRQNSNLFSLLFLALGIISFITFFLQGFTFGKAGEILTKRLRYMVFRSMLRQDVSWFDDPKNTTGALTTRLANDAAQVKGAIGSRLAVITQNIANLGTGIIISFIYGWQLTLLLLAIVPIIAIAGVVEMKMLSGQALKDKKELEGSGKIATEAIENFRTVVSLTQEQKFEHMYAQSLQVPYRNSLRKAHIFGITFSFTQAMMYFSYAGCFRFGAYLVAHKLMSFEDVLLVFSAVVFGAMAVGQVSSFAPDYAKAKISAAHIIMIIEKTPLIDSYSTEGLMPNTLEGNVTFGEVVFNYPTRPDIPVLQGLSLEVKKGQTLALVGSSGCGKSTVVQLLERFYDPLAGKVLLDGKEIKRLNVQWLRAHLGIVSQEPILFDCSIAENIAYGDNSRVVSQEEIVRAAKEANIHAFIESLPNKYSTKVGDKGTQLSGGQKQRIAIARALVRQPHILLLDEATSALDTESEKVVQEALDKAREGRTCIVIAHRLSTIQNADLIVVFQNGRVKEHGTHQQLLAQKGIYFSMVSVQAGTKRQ

B16-F10 = assay: Effect on doxorubicin accumulation in mouse B16/F10 cells by fluorimetry; format: functional, cell-based

| EC50 [1] | Compound | Activity (B16-F10) |
| --- | --- | --- |
| 193 µM | CC1(C)C(=O)C(O)=C[C@]2(C)[C@H]3CC[C@@](C)(C(=O)CO)C=C3CC[C@@H]12 [LONCHOPHYLLOID A] | inactive |
| 195 µM | CC1(C)[C@@H](O)CC[C@]2(C)[C@H]3CC[C@@](C)(C(=O)CO)C=C3CC[C@@H]12 [LONCHOPHYLLOID B] | inactive |
